This assay relates to Human myeloid monocytic leukemia cell line (MV-4-11). In words: Inhibition of MV-4-11 cell proliferation (CellTiter luminescent viability). The assay is classed as cell-based. To be noted: Homo sapiens, MV4-11; for inhibition at 0.01 µM: read-out: Inhibition Rate at 10 nM (%); for inhibition at 0.5 µM: read-out: Inhibition Rate at 500 nM (%). How it is done: The tumor cells used herein were cultured in a cell culture medium listed in table 3 at 37 °C in an incubator with 5% CO2. Prior to experimentation, all cell lines used were correctly identified by STR profiling, and tested negative for mycoplasma contamination using a mycoplasma detection kit through routine screenings.
The IC50 values of the compounds of the present disclosure (including the compounds in Table 1, Table 2, and Examples 1-468) were determined using the CellTiter-Meiluncell Luminescent Cell Viability Assay Kit from Dalian Meilun Biotech Co., Ltd. The detailed procedure is as follows: Tumor cells were seeded in 96-well cell culture plates at the densities specified in Table 4. On the following day, the test compounds of the present disclosure were subjected to serial dilution. The dilution can be performed according to one of the following two methods: • (1) The first dilution method: The test compounds of the present disclosure (including the compounds in Table 1, Table 2, and Examples 1-468) were subjected to 5-fold serial dilutions starting from a highest concentration of 2000 μM, resulting in a total of 9 concentrations from high to low (2000, 400, 80, 16, 3.2, 0.64, 0.128, 0.0256, 0.00512 μM). Subsequently, 0.5 μL of the test compound dilution was transferred into the 96-well plate containing the cells, with each well containing 100 μL of cell culture medium. […] Into the 96-well plate, the diluted test compounds and corresponding detection reagents were added, resulting in final test compound concentrations of 500 nM and 10 nM, respectively. The experimental procedure is described below using the diluted 2 μM test compound as an example.
0.5 μL of the aforementioned diluted compound of the present disclosure (including the compounds in Table 1, Table 2, and Examples 1-468) was added to the seeded cells in 100 μL of medium, yielding a final test compound concentration of 10 nM. After the cells were treated with the compounds of the present disclosure for a specified period, the cell viability assay reagent was added to the culture medium according to the kit's instructions to determine cell viability. […] All controls were treated using the same procedure as the compounds of the present disclosure. The growth inhibition curves for the compounds of the present disclosure were plotted using Prism GraphPad software, and the IC50 values were calculated therefrom.

Setting [1] is: Table IG2, FAK inhibitor-based, MV-4-11, 10 nM, 96 hours.
Where [2] appears, read: Table IG2, FAK inhibitor-based, MV-4-11, 500 nM, 96 hours.
[3] abbreviates: Table IL2, BCR-ABL inhibitor-based, MV-4-11, 10 nM, 96 hours.
[4] abbreviates: Table IL2, BCR-ABL inhibitor-based, MV-4-11, 500 nM, 96 hours.
Setting [5] is: Table IB2, ALK inhibitor-based, MV-4-11, 10 nM, 96 hours.
Setting [6] is: Table IB2, ALK inhibitor-based, MV-4-11, 500 nM, 96 hours.

Each structure is given as a SMILES string. Like-named read-outs stand apart in the source and are kept apart here.

What is called inhibition is the change of the read-out against control, counted positive when it falls.

In the case of `CC(C)(O)c1cc2nn(C3CCN(Cc4ccc5c(c4)CN(N4CCC(=O)NC4=O)C5=O)CC3)cc2cc1NC(=O)c1cccc(C(F)(F)F)n1` [GT-05746, N-(2-(1-((2-(2,4-dioxotetrahydropyrimidin-1(2H)-yl)-1-oxoisoindolin-5-yl)methyl)piperidin-4-yl)-6-(2-hydroxypropan-2-yl)-2H-indazol-5-yl)-6-(trifluoromethyl) picolinamide], the inhibition at 0.01 µM (Table IA3, IRAK4 inhibitor-based, MV-4-11, 10 nM, 96 hours) is 10 to 20%. In addition, the inhibition at 0.5 µM (Table IA3, IRAK4 inhibitor-based, MV-4-11, 500 nM, 96 hours) lay in the range of 60 to 80%.
For the compound `CN(c1nccnc1CNc1nc(Nc2ccc(N3CCN(Cc4ccc5c(c4)CN(N4CCC(=O)NC4=O)C5=O)CC3)cc2)ncc1C(F)(F)F)S(C)(=O)=O` [GT-07504, N-(3-(((2-((4-(4-((2-(2,4-dioxotetrahydropyrimidin-1(2H)-yl)-1-oxoisoindolin-5-yl)methyl)piperazin-1-yl)phenyl)amino)-5-(trifluoromethyl)pyrimidin-4-yl)amino)methyl)pyrazin-2-yl)-N-methylmethanesulfonamide], the inhibition at 0.01 µM under setting [1] is -5 to 0%. Besides, under setting [2], the inhibition at 0.5 µM lay in the range of 80 to 100%.
In the case of `CN(c1nccnc1CNc1nc(Nc2ccc(N3CCC(N4CCN(Cc5ccc6c(c5)CN(N5CCC(=O)NC5=O)C6=O)CC4)CC3)cc2)ncc1C(F)(F)F)S(C)(=O)=O` [GT-08138, N-(3-(((2-((4-(4-(4-((2-(2,4-dioxotetrahydropyrimidin-1(2H)-yl)-1-oxoisoindolin-5-yl)methyl)piperazin-1-yl)piperidin-1-yl)phenyl)amino)-5-(trifluoromethyl)pyrimidin-4-yl)amino)methyl)pyrazin-2-yl)-N-methylmethanesulfonamide], under setting [1], the inhibition at 0.01 µM was in the range of 20 to 30%. Moreover, the inhibition at 0.5 µM under setting [2] lay in the range of 80 to 100%.
Regarding `CN(Cc1ccc2c(c1)CN(N1CCC(=O)NC1=O)C2=O)C1CCN(c2ccc(Nc3ncc(C(F)(F)F)c(NCc4cccc(N(C)S(C)(=O)=O)c4)n3)cc2)CC1` [GT-08142, N-(3-(((2-((4-(4-(((2-(2,4-dioxotetrahydropyrimidin-1(2H)-yl)-1-oxoisoindolin-5-yl)methyl)(methyl)amino)piperidin-1-yl)phenyl)amino)-5-(trifluoromethyl)pyrimidin-4-yl)amino)methyl)phenyl)-N-methylmethanesulfonamide], the inhibition at 0.01 µM under setting [1] is 40 to 50%. Besides, under setting [2], the inhibition at 0.5 µM was 80 to 100%.
For `CN(c1cccc(CNc2nc(Nc3ccc(N4CCC(N5CCN(Cc6ccc7c(c6)CN(N6CCC(=O)NC6=O)C7=O)CC5)CC4)cc3)ncc2C(F)(F)F)c1)S(C)(=O)=O` [GT-08144, N-(3-(((2-((4-(4-(4-((2-(2,4-dioxotetrahydropyrimidin-1(2H)-yl)-1-oxoisoindolin-5-yl)methyl)piperazin-1-yl)piperidin-1-yl)phenyl)amino)-5-(trifluoromethyl)pyrimidin-4-yl)amino)methyl)phenyl)-N-methylmethanesulfonamide], under setting [1], the inhibition at 0.01 µM was in the range of 30 to 40%. In addition, the inhibition at 0.5 µM under setting [2] lay within 80 to 100%.
Take `Cc1ccc(C(=O)Nc2ccc(CN3CCN(Cc4ccc5c(c4)C(=O)N(N4CCC(=O)NC4=O)C5=O)CC3)c(C(F)(F)F)c2)cc1C#Cc1cnc2cccnn12` [GT-08217, N-(4-((4-((2-(2,4-dioxotetrahydropyrimidin-1(2H)-yl)-1,3-dioxoisoindolin-5-yl)methyl)piperazin-1-yl)methyl)-3-(trifluoromethyl)phenyl)-3-(imidazo[1,2-b]pyridazin-3-ylethynyl)-4-methylbenzamide]: under setting [3], the inhibition at 0.01 µM was 10 to 15%. Also, the inhibition at 0.5 µM under setting [4] fell in the range of 80 to 100%.
Consider `Cc1ccc(C(=O)Nc2ccc(N3CCN(Cc4ccc5c(c4)CN(N4CCC(=O)NC4=O)C5=O)CC3)c(C(F)(F)F)c2)cc1C#Cc1cnc2cccnn12` [GT-08218, N-(4-(4-((2-(2,4-dioxotetrahydropyrimidin-1(2H)-yl)-1-oxoisoindolin-5-yl)methyl)piperazin-1-yl)-3-(trifluoromethyl)phenyl)-3-(imidazo[1,2-b]pyridazin-3-ylethynyl)-4-methylbenzamide], for which, under setting [3], the inhibition at 0.01 µM is 5 to 10%. Besides, under setting [4], the inhibition at 0.5 µM lay in the range of 80 to 100%.
As to `Cc1ccc(C(=O)Nc2ccc(N3CCC(N(C)Cc4ccc5c(c4)C(=O)N(N4CCC(=O)NC4=O)C5=O)CC3)c(C(F)(F)F)c2)cc1C#Cc1cnc2cccnn12` [GT-08221, N-(4-(4-(((2-(2,4-dioxotetrahydropyrimidin-1(2H)-yl)-1,3-dioxoisoindolin-5-yl)methyl)(methyl)amino)piperidin-1-yl)-3-(trifluoromethyl)phenyl)-3-(imidazo[1,2-b]pyridazin-3-ylethynyl)-4-methylbenzamide], the inhibition at 0.01 µM under setting [3] was -5 to 0%. Also, the inhibition at 0.5 µM under setting [4] lay in the range of 50 to 60%.
As to `COc1cc(N2CCC(N3CCN(CC4CCN(c5ccc6c(c5)C(=O)N(N5CCC(=O)NC5=O)C6=O)CC4)CC3)CC2)ccc1Nc1ncc(Cl)c(Nc2ccccc2P(C)(C)=O)n1` [GT-08251, 5-(4-((4-(1-(4-((5-chloro-4-((2-(dimethylphosphoryl)phenyl)amino)pyrimidin-2-yl)amino)-3-methoxyphenyl)piperidin-4-yl)piperazin-1-yl)methyl)piperidin-1-yl)-2-(2,4-dioxotetrahydropyrimidin-1(2H)-yl)isoindoline-1,3-dione], the inhibition at 0.01 µM under setting [5] is 30 to 45%. The inhibition at 0.5 µM under setting [6] is 60 to 80%.
Turning to `COc1cc(N2CCC(N(C)CC3CCN(c4ccc5c(c4)C(=O)N(N4CCC(=O)NC4=O)C5=O)CC3)CC2)ccc1Nc1ncc(Cl)c(Nc2ccccc2P(C)(C)=O)n1` [GT-08253, 5-(4-(((1-(4-((5-chloro-4-((2-(dimethylphosphoryl)phenyl)amino)pyrimidin-2-yl)amino)-3-methoxyphenyl)piperidin-4-yl)(methyl)amino)methyl)piperidin-1-yl)-2-(2,4-dioxotetrahydropyrimidin-1(2H)-yl)isoindoline-1,3-dione], under setting [5], the inhibition at 0.01 µM was in the range of 15 to 20%. The inhibition at 0.5 µM under setting [6] fell in the range of 45 to 55%.
The matching figures for `COc1cc(N2CCC(N(C)CC3CCN(c4cccc5c4C(=O)N(N4CCC(=O)NC4=O)C5=O)CC3)CC2)ccc1Nc1ncc(Cl)c(Nc2ccccc2P(C)(C)=O)n1` [GT-08254, 4-(4-(((1-(4-((5-chloro-4-((2-(dimethylphosphoryl)phenyl)amino)pyrimidin-2-yl)amino)-3-methoxyphenyl)piperidin-4-yl)(methyl)amino)methyl)piperidin-1-yl)-2-(2,4-dioxotetrahydropyrimidin-1(2H)-yl)isoindoline-1,3-dione]: 45 to 55% and 60 to 80%.
`C[C@@H]1CNC(=O)c2cc3ccc(C(=O)Nc4cnn(Cc5ccc(N6CCN(CC7CCN(c8ccc9c(c8)C(=O)N(N8CCC(=O)NC8=O)C9=O)CC7)CC6)cc5)c4)nc3n21` [GT-08255, (R)—N-(1-(4-(4-((1-(2-(2,4-dioxotetrahydropyrimidin-1(2H)-yl)-1,3-dioxoisoindolin-5-yl)piperidin-4-yl)methyl)piperazin-1-yl)benzyl)-1H-pyrazol-4-yl)-9-methyl-6-oxo-6,7,8,9-tetrahydropyrido[3′,2′: 4,5]pyrrolo[1,2-a]pyrazine-2-carboxamide]: the inhibition at 0.01 µM (MV-4-11, 10 nM) is -15 to -5%. For the setting “MV-4-11, 500 nM”, the inhibition at 0.5 µM lay in the range of 50 to 70%.

The values are drawn from patent publication US20260364184A1, “COMPOUND BASED ON OXOISOINDOLINYL-SUBSTITUTED TETRAHYDROPYRIMIDINE-DIONE AND USE THEREOF” (GLUETACS THERAPEUTICS (SHANGHAI) CO., LTD., priority 2023, published 2026).
